Results from ChEMBL document CHEMBL1201862, “PubChem BioAssay data set” (2004).
Active and inactive are the calls of the source.

Assays:
[1] = molecular target: T1, Botulinum neurotoxin type A (Clostridium botulinum (strain Hall / ATCC 3502 / NCTC 13319 / Type A), UniProt P0DPI1); assay: High-throughput multiplex microsphere dose response for inhibitors of toxin protease, specifically Botulinum neurotoxin light chain A protease, compounds from Powder Set 01.; format: functional, Clostridium botulinum A str. ATCC 3502; details: read-out: EC50_MICROM
[2] = molecular target: T1, Botulinum neurotoxin type A; assay: Confirmatory FRET assay using full length substrates for Botulinum neurotoxin light chain A protease, with Powder Set01.; format: functional
Lethal factor [3] = molecular target: T2, Lethal factor (Bacillus anthracis, UniProt P15917); assay: High-throughput multiplex microsphere dose response for inhibitors of toxin protease, specifically Lethal Factor protease, compounds from Powder Set 01.; format: functional, Bacillus anthracis str. A2012; details: read-out: EC50_MICROM
[4] = molecular target: T3, Low molecular weight phosphotyrosine protein phosphatase (Homo sapiens, UniProt P24666); format: functional; details: read-out: IC50_Mean
T3 sequence (P24666 whole entry): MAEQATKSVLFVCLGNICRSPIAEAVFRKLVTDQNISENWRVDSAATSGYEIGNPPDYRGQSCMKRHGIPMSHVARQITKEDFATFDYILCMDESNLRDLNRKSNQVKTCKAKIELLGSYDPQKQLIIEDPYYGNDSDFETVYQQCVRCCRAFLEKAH

[5] = molecular target: T3, Low molecular weight phosphotyrosine protein phosphatase; format: functional; details: read-out: IC50_Mean; remark: listed apart in the source
[6] = molecular target: Nuclear receptor subfamily 0 group B member 1 (Homo sapiens, UniProt P51843); format: functional, cell-based;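 also: HEK293T cells transfected with SF-1 and DAX-1 plus StAR promoter luciferase reporter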
[7] = Luminescence Cell-Based Dose Retest to Confirm Inhibitors of Cancer Stem Cells. [Related pubchem assays (depositor defined):AID2717, AID2721]; format: functional; details: Homo sapiens
cells = format: functional, cell-based
[8] = molecular target: T4, Tyrosine-protein phosphatase non-receptor type 22 (Homo sapiens, UniProt Q9Y2R2); assay: lymphoid phosphatase LYP inhibitors – biochemical, selectivity assay for STEP inhibitor project, dose response (AID 624241); format: functional
T4 sequence (Q9Y2R2 whole entry): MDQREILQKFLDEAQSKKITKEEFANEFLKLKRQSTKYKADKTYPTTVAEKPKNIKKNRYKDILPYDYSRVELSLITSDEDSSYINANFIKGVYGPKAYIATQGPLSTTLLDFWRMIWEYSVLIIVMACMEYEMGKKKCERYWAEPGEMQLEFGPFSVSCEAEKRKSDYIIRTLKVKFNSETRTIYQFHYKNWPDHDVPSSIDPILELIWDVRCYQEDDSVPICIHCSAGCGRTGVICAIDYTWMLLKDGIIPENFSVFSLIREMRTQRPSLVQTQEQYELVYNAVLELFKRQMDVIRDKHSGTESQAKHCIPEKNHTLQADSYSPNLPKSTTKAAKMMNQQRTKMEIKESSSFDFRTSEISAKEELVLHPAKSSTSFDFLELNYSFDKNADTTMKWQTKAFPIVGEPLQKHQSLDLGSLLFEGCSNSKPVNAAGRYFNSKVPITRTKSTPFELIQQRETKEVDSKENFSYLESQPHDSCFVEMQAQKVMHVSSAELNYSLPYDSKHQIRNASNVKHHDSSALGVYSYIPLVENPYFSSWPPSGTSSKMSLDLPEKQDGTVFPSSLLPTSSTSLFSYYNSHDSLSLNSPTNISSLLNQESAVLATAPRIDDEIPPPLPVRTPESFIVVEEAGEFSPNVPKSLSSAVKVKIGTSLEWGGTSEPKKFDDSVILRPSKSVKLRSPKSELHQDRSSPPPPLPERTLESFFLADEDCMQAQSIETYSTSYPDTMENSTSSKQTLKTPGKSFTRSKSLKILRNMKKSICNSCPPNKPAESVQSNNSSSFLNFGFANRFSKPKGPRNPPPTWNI

[9] = molecular target: T5, Small ubiquitin-related modifier 1 (Homo sapiens, UniProt P63165); assay: SUMO1 protein interaction blockers, potency – biochemical, fluorescence polarization, uHTS hits, dose response (AID 624382); format: functional; details: read-out: IC50_Mean
[10] = molecular target: T6, Carboxy-terminal domain RNA polymerase II polypeptide A small phosphatase 1 (Homo sapiens, UniProt Q9GZU7); assay: CTDSP1 inhibitors, concentration-response, biochemical, absorbance readout, ultra-high-throughput screen actives (AID 540297); format: functional
T6 sequence (Q9GZU7 whole entry): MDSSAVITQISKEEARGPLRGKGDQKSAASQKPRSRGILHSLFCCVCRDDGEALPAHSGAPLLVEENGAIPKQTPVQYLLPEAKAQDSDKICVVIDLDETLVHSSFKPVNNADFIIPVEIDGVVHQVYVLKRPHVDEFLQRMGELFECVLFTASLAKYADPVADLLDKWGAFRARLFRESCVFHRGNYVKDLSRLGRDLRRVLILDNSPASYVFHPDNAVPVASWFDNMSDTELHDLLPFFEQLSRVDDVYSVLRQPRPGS

[11] = molecular target: T5, Small ubiquitin-related modifier 1; assay: SUMO1 protein-protein binding blockers, potency – biochemical, FRET, dose response (AID 624383); format: functional; details: read-out: IC50_Mean
SUMO-activating enzyme [12] = molecular target: T7, SUMO-activating enzyme (Homo sapiens, UniProt Q9UBT2); assay: blockers of UBC9-mediated SUMO conjugation – biochemical, AlphaScreen, SUMOylation inhibitor project, confirmation (AID 2018); format: functional
[13] = molecular target: T8, Tyrosine-protein phosphatase non-receptor type 11 (Homo sapiens, UniProt Q06124); assay: PTPN11 enzyme inhibitors – biochemical, selectivity assay for STEP inhibitor project, dose response (AID 602367); format: functional; details: read-out: IC50_Mean
T8 sequence (Q06124 whole entry): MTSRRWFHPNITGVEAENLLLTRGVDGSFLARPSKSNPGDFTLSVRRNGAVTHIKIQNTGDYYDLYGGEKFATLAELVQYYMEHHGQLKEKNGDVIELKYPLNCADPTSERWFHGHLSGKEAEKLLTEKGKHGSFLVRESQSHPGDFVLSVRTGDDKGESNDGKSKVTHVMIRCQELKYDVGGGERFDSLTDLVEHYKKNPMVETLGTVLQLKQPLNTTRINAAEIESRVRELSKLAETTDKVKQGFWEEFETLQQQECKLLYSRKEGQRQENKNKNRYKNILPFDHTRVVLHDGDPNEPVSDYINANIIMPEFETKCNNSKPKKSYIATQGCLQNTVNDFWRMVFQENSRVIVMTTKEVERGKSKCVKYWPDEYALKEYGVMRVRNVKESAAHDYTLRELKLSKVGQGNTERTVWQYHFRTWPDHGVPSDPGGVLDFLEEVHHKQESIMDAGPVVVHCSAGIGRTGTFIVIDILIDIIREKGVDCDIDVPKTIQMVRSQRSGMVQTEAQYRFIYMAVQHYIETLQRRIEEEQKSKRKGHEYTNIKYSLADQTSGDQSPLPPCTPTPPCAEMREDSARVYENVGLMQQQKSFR

SUMO-activating enzyme [14] = molecular target: T7, SUMO-activating enzyme; assay: blockers of SAE1/SAE2–UBC9 SUMO transfer – biochemical, HTRF, uHTS, primary screen (AID 2006); format: protein-complex assay
[15] = molecular target: T9, Tyrosine-protein phosphatase non-receptor type 5 (Homo sapiens, UniProt P54829); assay: PTPN5 enzyme inhibition – biochemical, fluorescence intensity, uHTS hits, confirmation (AID 602372); format: functional; details: read-out: IC50_Mean
T9 sequence (P54829 whole entry): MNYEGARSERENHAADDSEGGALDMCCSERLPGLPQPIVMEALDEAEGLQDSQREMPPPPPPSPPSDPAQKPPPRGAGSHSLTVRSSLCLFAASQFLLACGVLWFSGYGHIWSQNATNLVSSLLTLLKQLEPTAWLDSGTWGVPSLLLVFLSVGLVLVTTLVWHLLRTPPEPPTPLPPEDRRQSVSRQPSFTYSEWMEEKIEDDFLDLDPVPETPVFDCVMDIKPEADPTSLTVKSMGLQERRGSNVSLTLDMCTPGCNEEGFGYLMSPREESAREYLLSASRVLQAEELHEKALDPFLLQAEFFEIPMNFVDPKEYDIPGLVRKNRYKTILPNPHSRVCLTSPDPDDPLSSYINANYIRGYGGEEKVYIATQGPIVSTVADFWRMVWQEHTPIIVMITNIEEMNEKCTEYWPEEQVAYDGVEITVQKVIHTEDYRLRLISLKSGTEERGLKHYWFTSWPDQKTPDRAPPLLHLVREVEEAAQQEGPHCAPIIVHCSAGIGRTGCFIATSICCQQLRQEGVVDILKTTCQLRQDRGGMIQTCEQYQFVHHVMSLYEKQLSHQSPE

[16] = molecular target: Dual specificity protein phosphatase 3 (Homo sapiens, UniProt P51452); assay: VHR phosphatase inhibition, dose response, selectivity assay for STEP inhibitor project, biochemical (AID 602374); format: functional; details: read-out: IC50_Mean
[17] = inhibitors of TRPM1-promoter reporter in SK-MEL-5 – cell-based, luciferase, dry powder, set 8, MITF inhibitor project, dose response (AID 624430); format: functional
[18] = MITF: Counter assay: A375 proliferation Measured in Cell-Based System Using Plate Reader - 2084-03_Inhibitor_Dose_DryPowder_Activity_Set8.; format: functional; details: A-375
[19] = MITF Orthogonal Assay: SK-MEL-5 CTG Assay Measured in Cell-Based System Using Plate Reader - 2084-02_Inhibitor_Dose_DryPowder_Activity_Set7.; format: functional
[20] = T. cruzi growth inhibition in host cells, dose response, cell-based, plate reader, dry powder, set 2 (AID 652275); format: functional
[21] = anti-trypanosomal activity in BESM host cells – imaging, CA-I/72 strain, bovine embryo skeletal muscle, dry powder, dose response (AID 651885); format: functional, cell-based
[22] = molecular target: Disintegrin and metalloproteinase domain-containing protein 17 (Homo sapiens, UniProt P78536); assay: exosite inhibitors of ADAM17, dose response, biochemical (AID 743260)
[23] = inhibition of ADAM10 peptide cleavage – biochemical, FRET peptide substrate, recombinant human ADAM10, selectivity assay for ADAM17 exosite inhibitor project, dose response (AID 743259);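 also: ADAM10 enzyme cleaving a FRET peptide substrate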
[24] = molecular target: Heat shock protein HSP 90-alpha (Homo sapiens, UniProt P07900); format: functional, organism-based
Lethal factor [25] = molecular target: T2, Lethal factor; assay: High-throughput multiplex microsphere dose response for inhibitors of toxin protease, specifically Lethal Factor protease, compounds from Cherry Pick 02.; format: functional; details: read-out: EC50_MICROM
[26] = molecular target: Botulinum neurotoxin type F (Clostridium botulinum, UniProt P30996); assay: High-throughput multiplex microsphere dose response for inhibitors of toxin protease, specifically Botulinum neurotoxin light chain F protease, compounds from Cherry Pick 02.; format: functional; details: read-out: EC50_MICROM
Chain of Botulinum neurotoxin type F (P30996 1-436 limits assumed): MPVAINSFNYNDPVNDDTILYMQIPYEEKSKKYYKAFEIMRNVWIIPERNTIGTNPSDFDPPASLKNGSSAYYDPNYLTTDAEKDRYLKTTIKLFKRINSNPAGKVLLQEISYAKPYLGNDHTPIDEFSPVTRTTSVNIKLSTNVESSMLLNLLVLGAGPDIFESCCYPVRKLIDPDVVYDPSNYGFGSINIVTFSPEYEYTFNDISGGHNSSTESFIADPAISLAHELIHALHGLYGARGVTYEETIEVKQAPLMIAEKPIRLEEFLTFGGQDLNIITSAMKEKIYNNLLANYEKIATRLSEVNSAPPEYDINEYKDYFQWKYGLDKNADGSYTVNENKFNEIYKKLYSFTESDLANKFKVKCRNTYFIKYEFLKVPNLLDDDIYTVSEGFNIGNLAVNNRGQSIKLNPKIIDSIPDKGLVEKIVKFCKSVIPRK

T2 sequence (P15917 whole entry): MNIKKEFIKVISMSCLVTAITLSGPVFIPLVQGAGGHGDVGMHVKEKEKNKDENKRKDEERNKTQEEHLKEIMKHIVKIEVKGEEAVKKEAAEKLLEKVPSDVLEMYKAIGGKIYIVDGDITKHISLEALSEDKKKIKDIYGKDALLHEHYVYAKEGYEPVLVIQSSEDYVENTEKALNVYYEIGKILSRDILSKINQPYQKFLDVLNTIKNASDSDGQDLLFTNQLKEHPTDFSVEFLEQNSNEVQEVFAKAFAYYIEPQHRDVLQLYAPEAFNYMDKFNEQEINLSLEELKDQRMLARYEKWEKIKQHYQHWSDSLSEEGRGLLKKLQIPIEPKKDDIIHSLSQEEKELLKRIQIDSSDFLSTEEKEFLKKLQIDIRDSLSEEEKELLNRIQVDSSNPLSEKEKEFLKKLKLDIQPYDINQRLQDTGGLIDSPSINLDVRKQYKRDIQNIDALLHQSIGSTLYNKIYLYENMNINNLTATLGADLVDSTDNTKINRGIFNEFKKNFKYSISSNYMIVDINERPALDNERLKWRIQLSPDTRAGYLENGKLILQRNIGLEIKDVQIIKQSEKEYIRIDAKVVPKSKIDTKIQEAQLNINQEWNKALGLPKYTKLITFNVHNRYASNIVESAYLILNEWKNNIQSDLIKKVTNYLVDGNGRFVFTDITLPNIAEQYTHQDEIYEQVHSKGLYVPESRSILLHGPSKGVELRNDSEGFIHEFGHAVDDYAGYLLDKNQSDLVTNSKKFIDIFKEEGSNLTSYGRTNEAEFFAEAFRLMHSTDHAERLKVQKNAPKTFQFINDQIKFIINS
T7 sequence (Q9UBE0 whole entry): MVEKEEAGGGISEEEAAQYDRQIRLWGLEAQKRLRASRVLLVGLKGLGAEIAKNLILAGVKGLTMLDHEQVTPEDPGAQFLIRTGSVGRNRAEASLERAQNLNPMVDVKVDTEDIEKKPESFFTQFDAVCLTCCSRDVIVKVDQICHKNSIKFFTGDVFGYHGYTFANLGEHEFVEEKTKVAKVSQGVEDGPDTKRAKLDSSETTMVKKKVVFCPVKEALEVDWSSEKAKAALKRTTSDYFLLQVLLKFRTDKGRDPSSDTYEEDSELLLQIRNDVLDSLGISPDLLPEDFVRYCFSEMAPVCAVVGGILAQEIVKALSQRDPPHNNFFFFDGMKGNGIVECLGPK
T7 sequence (Q9UBT2 whole entry): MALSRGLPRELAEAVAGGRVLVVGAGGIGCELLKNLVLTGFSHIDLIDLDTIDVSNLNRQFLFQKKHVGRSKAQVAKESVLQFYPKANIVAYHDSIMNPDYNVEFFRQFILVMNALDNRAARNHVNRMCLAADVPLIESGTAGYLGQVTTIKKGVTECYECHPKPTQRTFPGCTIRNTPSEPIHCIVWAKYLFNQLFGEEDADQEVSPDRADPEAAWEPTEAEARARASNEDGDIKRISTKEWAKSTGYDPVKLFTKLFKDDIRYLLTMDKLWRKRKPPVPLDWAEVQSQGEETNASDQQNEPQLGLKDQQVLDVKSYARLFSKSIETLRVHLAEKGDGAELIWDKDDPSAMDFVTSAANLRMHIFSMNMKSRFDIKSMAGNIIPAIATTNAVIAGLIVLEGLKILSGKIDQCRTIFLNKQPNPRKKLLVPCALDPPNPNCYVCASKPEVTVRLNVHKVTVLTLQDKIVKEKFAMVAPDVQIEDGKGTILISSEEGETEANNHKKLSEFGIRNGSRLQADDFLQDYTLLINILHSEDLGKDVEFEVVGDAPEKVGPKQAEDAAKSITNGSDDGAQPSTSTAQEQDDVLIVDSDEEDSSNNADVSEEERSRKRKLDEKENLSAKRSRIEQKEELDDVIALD
T1 sequence (P0DPI1 2-448 limits assumed): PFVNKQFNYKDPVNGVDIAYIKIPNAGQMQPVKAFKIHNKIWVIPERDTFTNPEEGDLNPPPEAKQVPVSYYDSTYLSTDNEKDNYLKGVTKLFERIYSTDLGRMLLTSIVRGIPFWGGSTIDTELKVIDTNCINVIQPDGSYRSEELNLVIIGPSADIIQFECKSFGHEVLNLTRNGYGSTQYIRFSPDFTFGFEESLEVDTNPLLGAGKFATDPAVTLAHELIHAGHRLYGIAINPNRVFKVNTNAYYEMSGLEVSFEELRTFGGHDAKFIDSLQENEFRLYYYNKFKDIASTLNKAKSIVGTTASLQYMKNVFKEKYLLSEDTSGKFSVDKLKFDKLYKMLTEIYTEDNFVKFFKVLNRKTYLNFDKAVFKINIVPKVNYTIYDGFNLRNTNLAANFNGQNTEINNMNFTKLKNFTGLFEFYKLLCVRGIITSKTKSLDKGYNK
T5 sequence (P63165 whole entry, the tested form may be a part): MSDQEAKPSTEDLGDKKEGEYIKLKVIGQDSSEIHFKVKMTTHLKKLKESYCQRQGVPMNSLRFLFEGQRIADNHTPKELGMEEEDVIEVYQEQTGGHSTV
Chain of Nuclear receptor subfamily 0 group B member 1 (P51843 whole entry): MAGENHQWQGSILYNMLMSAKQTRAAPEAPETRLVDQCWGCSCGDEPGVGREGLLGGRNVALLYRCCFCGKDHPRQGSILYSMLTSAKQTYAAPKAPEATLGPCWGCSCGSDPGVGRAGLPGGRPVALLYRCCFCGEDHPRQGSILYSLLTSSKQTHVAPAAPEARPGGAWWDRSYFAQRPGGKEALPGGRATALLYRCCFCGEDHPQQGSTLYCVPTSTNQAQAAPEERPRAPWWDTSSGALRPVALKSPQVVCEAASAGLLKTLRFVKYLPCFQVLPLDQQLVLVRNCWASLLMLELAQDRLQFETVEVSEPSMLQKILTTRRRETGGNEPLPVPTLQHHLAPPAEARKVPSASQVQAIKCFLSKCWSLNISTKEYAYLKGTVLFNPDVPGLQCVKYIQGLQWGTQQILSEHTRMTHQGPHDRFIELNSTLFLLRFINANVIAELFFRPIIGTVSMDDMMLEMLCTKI
Chain of Dual specificity protein phosphatase 3 (P51452 whole entry): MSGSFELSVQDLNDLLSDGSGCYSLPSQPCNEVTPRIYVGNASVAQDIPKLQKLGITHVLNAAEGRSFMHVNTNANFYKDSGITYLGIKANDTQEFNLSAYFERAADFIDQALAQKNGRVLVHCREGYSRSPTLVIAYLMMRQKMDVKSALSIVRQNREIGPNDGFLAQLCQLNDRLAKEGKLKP
Chain of Disintegrin and metalloproteinase domain-containing protein 17 (P78536 whole entry, the tested form may be a part): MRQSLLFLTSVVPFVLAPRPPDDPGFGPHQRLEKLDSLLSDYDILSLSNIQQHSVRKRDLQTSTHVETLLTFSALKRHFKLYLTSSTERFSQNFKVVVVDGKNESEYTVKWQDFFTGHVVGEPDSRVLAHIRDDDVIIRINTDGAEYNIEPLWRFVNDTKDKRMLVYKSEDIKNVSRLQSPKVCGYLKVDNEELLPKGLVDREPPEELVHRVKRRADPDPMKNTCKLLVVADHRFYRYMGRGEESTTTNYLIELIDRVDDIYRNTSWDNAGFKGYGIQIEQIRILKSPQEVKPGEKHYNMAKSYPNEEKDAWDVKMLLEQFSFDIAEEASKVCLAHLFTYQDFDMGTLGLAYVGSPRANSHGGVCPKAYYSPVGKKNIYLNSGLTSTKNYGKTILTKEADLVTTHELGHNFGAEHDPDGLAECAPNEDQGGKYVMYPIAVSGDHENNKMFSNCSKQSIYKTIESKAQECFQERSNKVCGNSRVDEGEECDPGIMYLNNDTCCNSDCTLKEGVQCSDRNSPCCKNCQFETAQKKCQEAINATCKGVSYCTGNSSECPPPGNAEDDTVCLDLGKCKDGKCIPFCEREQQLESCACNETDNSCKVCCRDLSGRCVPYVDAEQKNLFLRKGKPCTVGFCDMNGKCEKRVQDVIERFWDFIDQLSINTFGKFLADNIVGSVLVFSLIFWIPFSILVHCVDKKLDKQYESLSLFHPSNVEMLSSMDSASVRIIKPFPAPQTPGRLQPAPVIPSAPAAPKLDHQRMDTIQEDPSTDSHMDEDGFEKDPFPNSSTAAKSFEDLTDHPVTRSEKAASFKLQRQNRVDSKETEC

COc1ccc(C2CC(c3cccs3)=NN2c2nc(C)c(C(C)=O)s2)cc1OC (stereo not drawn)
EC50 [1]: 7.5 µM (active) | EC50 [2]: 10.4 µM (active) | EC50 (Lethal factor [3]): 9.6 µM (active)

CC(Nc1nc(-c2ccccc2)nc2ccccc12)c1ccccc1 (stereo not drawn)
IC50 [4]: > 80 µM (inactive) | IC50 [5]: 23.1 µM (inactive) | IC50 [6]: > 67.5 µM (inactive) | AC50 [7]: 4.43 µM (active) | IC50 (cells): > 67.5 µM (inactive)

Cc1c(CC(=O)O)c(=O)oc2c(C)c(OCc3ccc(F)cc3Cl)ccc12
IC50 [8]: 12.7 µM (active) | IC50 [5]: 11.5 µM (active) | IC50 [9]: > 66.6 µM (inactive) | IC50 [10]: 2.17 µM (active) | IC50 [11]: 15.7 µM (active) | IC50 (SUMO-activating enzyme [12]): > 100 µM (inactive) | IC50 [13]: 2.48 µM (active) | IC50 (SUMO-activating enzyme [14]): 12.5 µM (active) | IC50 [15]: 5.58 µM (active) | IC50 [16]: 3.68 µM (active)

O=C1C=C(NCc2ccc(Cl)cc2)C(=O)c2ccccc21
AC50 [17]: > 70 µM (inactive) | AC50 [18]: > 70 µM (inactive) | AC50 [19]: 53.3 µM (active)

C[C@@H]1CN([C@@H](C)CO)C(=O)c2cccc(NC(=O)c3ccncc3)c2O[C@H]1CN(C)Cc1ccc(Cl)cc1
AC50 [20]: 0.0633 µM (active) | IC50 [21]: 0.02 µM (active)

OCCCn1c(C2CCCN2c2nc(-c3ccc(F)cc3)cs2)nc2cc(Cl)c(Cl)cc21 (stereo not drawn)
IC50 [22]: > 69.5 µM (inactive) | IC50 [23]: > 69.5 µM (inactive) | AC50 [24]: 5.05 µM (active)

CCCCCCCCC(c1nc2cc(C)c(C)cc2[nH]1)n1c(=O)c(-c2ccccc2Br)nc2ccccc21 (stereo not drawn)
EC50 (Lethal factor [25]): 17.9 µM (active) | EC50 [26]: > 20 µM (inactive)
